Data from US20180251483A1, “THIOCYANATE SALTS FOR ANTI-INFLAMMATION” (National Jewish Health, priority 2015, published 2018).

Key:
[1] = Catalase activity: H2O2 consumption followed with a hydrogen peroxide selective electrode; type: biochemical
Experimental: FIG. 4 is a line graph showing effects of 1 mM NaSCN on the consumption of H2O2 by 10150-Cl at a fixed concentration of 12.5 μM and various H2O2 concentrations. Legend: Cmpd 10150-Cl (circles); Cmpd 10150-Cl+SCN (1 mM) (triangles).
To test whether SCN was acting as a competing substrate in the catalase activity one examined the change in 10150-Cl catalase activity by following the disappearance of H2O2 over time with a H2O2 selective electrode in the presence or absence of 1 mM NaSCN.
Experimental Conditions: Effects of 1 mM NaSCN on the consumption of H2O2 by 10150-Cl was investigated at a fixed concentration of 12.5 μM and various H2O2 concentrations. H2O2 consumption was followed over time with a hydrogen peroxide selective electrode (HPO) using a free radical analyzer (WPI). Changes in pA were converted to H2O2 using a 5 point H2O2 standard curve. The data was fitted as a linear curve using Prizm software. The rate constant for 10150-Cl was 0.09±0.004 min^−1 and in the presence of 1 mM NaSCN was decreased to 0.02±0.004 min^−1.

[2] = system: rat brain homogenates; assay: Iron/ascorbate-initiated lipid peroxidation of rat brain homogenates, TBARS assay; type: biochemical; settings: comparison of the two salts
Experimental: Legend: Cmpd 10150-Cl (circles); Cmpd 10150-SCN (boxes).
The ability of the salts of the invention to inhibit lipid peroxidation was assessed as described by Ohkawa et al. (Anal. Biochem. 95:351 (1979)) and Yue et al. (J. Pharmacol. Exp. Ther. 263:92 (1992)). Iron and ascorbate can be used to initiate lipid peroxidation in tissue homogenates and the formation of thiobarbituric acid reactive species (TBARS) measured. Lipid peroxidation causes cell damage by radicals, which destroys lipids in cell membranes resulting in oxidative and inflammatory injury.
Both the chloride and thiocyanate salts of 10150 have similar lipid peroxide inhibition. Lipid peroxidation of rat brain homogenates was initiated with iron/ascorbate in the presence or absence of various concentrations of 10150-Cl or 10150-SCN. Lipid peroxidation was quantified using the TBARS assay with malondialdehyde standards. The data was normalized and curve fitted to determine the inhibitory concentrations that decreased lipid peroxidation by one-half (IC50).

[3] = system: Human bronchial epithelial cells (HBE); assay: Hypochlorite-induced injury of human bronchial epithelial cells, MTT viability assay; type: cell-based; settings: 250 μM HOCl for 30 minutes, 10 μM compound, MTT 24 hours post exposure, compared to 10150-Cl or NaSCN
Experimental: Bins (left to right): PBS (phosphate buffered saline); 250 uM HOCl; 250 uM HOCl+10 uM 10150-Cl; 250 uM HOCL+10 uM 10150-SCN; 250 uM HOCL+10 uM NaSCN.
Human bronchial epithelial cells (HBE) were exposed to 250 μM of hypochlorite (HOCl) for 30 minutes in the presence or absence of 10 μM of 10150-Cl, 10150-SCN, or NaSCN and cell injury was assessed 24 hours post HOCl exposure using the MTT viability assay.

[4] = Oxygen formation from H2O2 followed with an oxygen selective electrode (catalase to haloperoxidase conversion); type: biochemical
Experimental: FIG. 5 is a bar graph showing the inhibition of oxygen formation by 10150-Cl in the presence of hydrogen peroxide and thiocyanate. Bins (left to right); 25 uM Cmpd 10150; 50 uM Cmpd 10150. Legend: control (open); SCN 1 mM (closed).
It was examined whether SCN was being utilized as a substrate in a peroxidase reaction by looking at the inhibition of oxygen formation. If 10150-Cl was utilizing SCN along with H2O2, then no oxygen would be generated (see Eq 2).
To examine the rate of oxygen formation in the presence of 10150-Cl, H2O2 in the presence or absence of NaSCN, one utilized an oxygen selective electrode with a free radical analyzer (WPI). Changes in pA were converted to O2 using the difference of the O2 concentration in a saturated solution minus that of the solution made anaerobic by the addition of dithionite.
Experimental Conditions: Conversion of catalase activity to haloperoxidase activity of 10150-Cl with the addition of thiocyanate (SCN). Oxygen formation was followed with an oxygen selective electrode in a reaction mixture containing 10150 at either 25 or 50 μM and 1 mM H2O2 in the presence or absence of 1 mM SCN.

[5] = stated as known; cited from earlier work

haloperoxidase activity ([4]; thiocyanate as substrate, generating HOSCN)	rate constant of H2O2 consumption in the presence of 1 mM NaSCN ([1]; 12.5 μM compound, various H2O2 concentrations, 1 mM NaSCN)	rate constant of H2O2 consumption ([1]; 12.5 μM compound, various H2O2 concentrations, absence of NaSCN)	Compound	catalase activity ([1]; comparison of the 10150-Cl and SCN salts)	IC50 of lipid peroxidation (TBARS formation) [2]	protection against hypochlorite-mediated epithelial cell injury [3]	oxygen formation on addition of SCN ([4]; 10150 at 25 or 50 μM, 1 mM H2O2, presence vs absence of 1 mM SCN)	catalase activity (dismutation of hydrogen peroxide into oxygen and water) [5]
–	–	–	[5,10,15,20 tetrakis(1,3-diethylimidazolium-2-yl)porphyrinato] manganese (III) pentathiocyanate [10150-SCN]	lower catalase activity than 10150-Cl salt	not statistically different	synergistic effects	–	–
has haloperoxidase activity	0.02 ± 0.004 min⁻¹	0.09 ± 0.004 min⁻¹	CCN1C=CN(CC)C1=C1C2=NC(=C(c3n(CC)cc[n+]3CC)C3=NC(=C(c4n(CC)cc[n+]4CC)c4ccc([n-]4)C(c4n(CC)cc[n+]4CC)=C4C=CC1=N4)C=C3)C=C2.[Cl-].[Cl-].[Cl-].[Cl-].[Cl-].[Mn+3] [10150-Cl, [5,10,15,20 tetrakis(1,3-diethylmidazolium-2-yl)porphyrinato] manganese (III) pentachloride]	–	not statistically different	–	dramatically inhibited the formation of oxygen	known to possess catalase activity
